Source: patent publication US5308605A, “Diagnosis of tumors with 5-radioiodo-2'-deoxyuridine” (priority 1992, dated 1994)
Where two headings read alike, the source gives them in different places.

Assays:
[1] = humans; unincorporated IUdR; cited from earlier work
[2] = mouse; unincorporated IUdR; cited from earlier work
[3] = test system: transitional cell carcinoma of the bladder; assay: Planar scintigraphy of MNU-induced bladder cancer; assay type: in vivo, Fisher 344 rats; details: day 3, intravesical
Procedure: The carcinogen N-methyl-N-nitrosourea (MNU), known to induce transitional cell carcinoma of the bladder, was instilled directly into the bladder lumen of 4-to-5-week old female Fisher 344 rats (20 animals) via bladder catheterization using a 22-gauge angiocatheter (1.5 mg/0.15 ml saline intravesically, every other week for a total of 4 doses). The drinking water was supplemented with a combination of trimethoprim-sulfamethoxasole, neomycin sulfate and polymixin B. Twelve to sixteen weeks after the last MNU infusion, the bladder was catheterized and emptied and [^125 I/^131 I ]IUdR (6. 4 to 10. 9 MBq [^125 I]IUdR [172 to 294 μCi] and 10.7 MBq [^131 I ]IUdR [290 μCi]) was administered through the catheter in a 100- or 200- μl volume and left in place for 2 h. The bladder contents were then withdrawn and the bladder rinsed with normal saline (5×1-ml). Nontumor-bearing control rats (16 animals) were injected by the same route with identical amounts of [^125 I/^131 I]IUdR. The drinking water of all animals was supplemented with 0. 1% potassium iodide from 48 to 72 h prior to the administration of the radiopharmaceutical up to the time of sacrifice. The tumor-bearing rats and the non-tumor bearing control rats were divided into Group A consisting of 12 tumor-bearing and 12 control rats, and Group B consisting of 8 tumor-bearing and 4 control rats. […]

[4] = test system: murine ovarian tumor (MOT); assay: Antineoplastic effect (survival fraction, median survival) in mouse ascites tumor; assay type: in vivo, C3HeB/FeJ mice
Text: 2. ^125 IUdR Is an Effective Antineoplastic Agent In A Mouse Ascites Tumor. The tumor used in these experiments is the same murine ovarian tumor described above. We have determined the median survival of mice after i.p. challenge with various tumor cell inocula.
The relatively long survival of tumor-bearing mice facilitates quantitative evaluation of tumor cell killing after treatment with ^125 IUdR and can be used to calculate a cellular survival fraction.

9 L gliosarcoma [5] = assay: Scintigraphic imaging of brain tumors after intratumor injection; details: control animals; images 12-38 h
[6] = test system: murine ovarian tumor (MOT); assay: Scintigraphic imaging of ovarian tumor-bearing mice; assay type: in vivo, C3HeB/FeJ mice; details: later than 1 h (2, 16, 24 hr); 300 μCi
9 L gliosarcoma [7] = assay: Biodistribution 40 h after injection in brain tumor-bearing rats
DNA = assay: Microautoradiography of bladder, intestine and bone marrow; assay type: in vivo, Fisher 344 rats
Procedure: The carcinogen N-methyl-N-nitrosourea (MNU), known to induce transitional cell carcinoma of the bladder, was instilled directly into the bladder lumen of 4-to-5-week old female Fisher 344 rats (20 animals) via bladder catheterization using a 22-gauge angiocatheter (1.5 mg/0.15 ml saline intravesically, every other week for a total of 4 doses). The drinking water was supplemented with a combination of trimethoprim-sulfamethoxasole, neomycin sulfate and polymixin B. Twelve to sixteen weeks after the last MNU infusion, the bladder was catheterized and emptied and [^125 I/^131 I ]IUdR (6. 4 to 10. 9 MBq [^125 I]IUdR [172 to 294 μCi] and 10.7 MBq [^131 I ]IUdR [290 μCi]) was administered through the catheter in a 100- or 200- μl volume and left in place for 2 h. The bladder contents were then withdrawn and the bladder rinsed with normal saline (5×1-ml). Nontumor-bearing control rats (16 animals) were injected by the same route with identical amounts of [^125 I/^131 I]IUdR. The drinking water of all animals was supplemented with 0. 1% potassium iodide from 48 to 72 h prior to the administration of the radiopharmaceutical up to the time of sacrifice. The tumor-bearing rats and the non-tumor bearing control rats were divided into Group A consisting of 12 tumor-bearing and 12 control rats, and Group B consisting of 8 tumor-bearing and 4 control rats. Group A was sacrificed 48 hours after administration of the radiopharmaceutical while Group B was sacrificed one (1) week after administration of the radiopharmaceutical.
The specificity of targeting and the DNA-incorporation of [^125 I]IUdR were determined by microautoradiography. The distribution and frequency of grains were assessed over the entire section and compared to the histopathologic findings. At the time of the biodistribution studies, the small intestine and the large intestine were quickly frozen in isopentane and liquid nitrogen. Bone marrow smears were fixed in 100% methanol. After rinsing with normal saline, the bladder was fixed in situ with 10% buffered formaldehyde, excised, and subsequently embedded in paraffin. The tissues were then sectioned (5-7 μm thickness), fixed (except for the bladder sections already fixed in vivo) and processed for autoradiography as were the bone marrow smears.
The tissue sections and bone marrow slides were coated with NTB2 emulsion (Kodak) and stored desiccated at 4° C. in light-tight boxes. After various times of emulsion exposure (up to 7 months), the autoradiographic slides were developed for 3 min in D-19 developer (Kodak) and fixed for 5 min in D-11 fixer (Kodak). Finally, the tissue sections were washed in distilled water, stained with hematoxylin/eosin, dehydrated, cleared, and mounted in Permount. Bone marrow slides were stained with Giemsa stain. Tissue and bone marrow slides were then examined under light microscopy.

[8] = test system: transitional cell carcinoma of the bladder; assay type: in vivo, Fisher 344 rats
Text: No carrier added [^125 I/^131 I] IUdR was synthesized as described previously, see U.S. Pat. No. 4,851,520 hereby incorporated by reference, and purified on a C18 reverse phase HPLC column. The radiochemical purity of the product was>99% as determined by TLC with specific activities of 81.40 TBq/mmol and 96.94 GBq/mmol for [^125 I] IUdR and [^131 I] IUdR, respectively.
The carcinogen N-methyl-N-nitrosourea (MNU), known to induce transitional cell carcinoma of the bladder, was instilled directly into the bladder lumen of 4-to-5-week old female Fisher 344 rats (20 animals) via bladder catheterization using a 22-gauge angiocatheter (1.5 mg/0.15 ml saline intravesically, every other week for a total of 4 doses). […]
The biodistribution studies were conducted at 48 hours and at 1 week after administration of radiolabeled IUdR in order to quantitate the in vivo distribution of the radiopharmaceutical in terms of percent injected dose per gram of tissue (%ID/g) and to derive tumor to normal tissue ratios. Various organs and tissues of interest were excised, rinsed, blotted dry, weighed, and their radioactive content was determined in a gamma counter along with that of urine, stomach contents, blood and bone marrow.

O=c1[nH]c(=O)n([C@H]2C[C@H](O)[C@@H](CO)O2)cc1I [IUdR, 5-Iodo-2'-deoxyuridine]
half-life in circulation [1]: less than five | half-life in circulation [2]: less than seven

O=c1[nH]c(=O)n([C@H]2C[C@H](O)[C@@H](CO)O2)cc1I [[^131 I]IUdR, 5-iodo-2'-deoxyuridine]
scintigraphic activity in normal animals [3]: virtual absence of activity in normal animals | scintigraphic activity in tumor-bearing animals [3]: only visible area of activity remaining in the tumor-bearing animals was over the region of the bladder | decrease in survival ([4]; equivalent doses, 131I label): does not result in any decrease in survival

O=c1[nH]c(=O)n([C@H]2C[C@H](O)[C@@H](CO)O2)cc1I [^123 IUdR, 5-iodo-2'-deoxyuridine]
clearance of activity from the head (9 L gliosarcoma [5]): clearance of the activity from the head of all control animals by 12 h | focal area of abdominal activity, later time points [6]: persisted only in MOT-bearing mice while it cleared from the abdomen of animals without tumor | survival fraction of tumor cells as a function of dose ([4]; 5 i.p. injections, 4 h intervals): an exponential decrease is obtained similar to that observed with the ^125 IUdR data | median survival of tumor-bearing animals ([4]; 5 i.p. injections, 4 h intervals, 24 h post tumor inoculation): prolongs median survival of the tumor-bearing animals (FIG. 7 of the incorporated patent) in a dose-dependent fashion | injected dose found in tumor (9 L gliosarcoma [7]; one animal, tumor occupied large portion of right brain specimen): 25 % of the injected dose | injected dose per gram, right brain (injected side), sham-operated (9 L gliosarcoma [7]; sham-operated controls, mean±SD): 0.09±0.02 %ID/g | injected dose per gram, right brain (injected side), tumor-bearing (9 L gliosarcoma [7]; tumor-bearing animals, mean±SD, P<0.05 vs sham): 0.36±0.14 %ID/g

O=c1[nH]c(=O)n([C@H]2C[C@H](O)[C@@H](CO)O2)cc1I [^125 IUdR, 5-iodo-2'-deoxyuridine]
penetration into the bladder wall (DNA; animals with infection/inflammation): potential for radiolabeled IUdR to penetrate deep within the bladder wall | uptake in squamous metaplasia and bacteria (DNA; basal layer of squamous metaplasia, bacteria when active infection present): Uptake was also observed in the basal layer of squamous metaplasia and in bacteria when active infection was present | cell-associated silver grains in bone marrow smears (DNA; bone marrow): free of cell-associated silver grains | uptake in the urothelium of control animals (DNA; control animals): did not show uptake in the urothelium | autoradiographic uptake by the tumor (DNA; hyperplasia and papillary carcinoma stages): uptake of radiolabeled IUdR by the tumor at the early stage of tumor development, i.e. the hyperplasia stage, as well as in the later papillary carcinoma stage | silver grains in actively dividing normal epithelia (DNA; rat, in vivo): did not show the presence of silver grains | silver grains in normal urothelium (DNA; rat, in vivo): generally free of silver grains | DNA incorporation by abnormal urothelium vs normal (DNA; tumor-bearing animals): always significantly higher | percent injected dose per gram of bladder, tumor-bearing vs control ([8]; 48 h): significant difference | permeation to the systemic circulation ([8]; rat, not told): very low | tumor cell survival fraction (plateau) ([4]; seven consecutive injections): 10^-5
